Data on four compounds can be found in patent US6444617B1, “Fused-heterocycle dicarboxylic acid diamide derivatives or salts thereof, herbicide and usage thereof” (Nihon Nohyaku Co., Ltd., priority 1998, dated 2002).

Holding throughout (type): in vivo
For one series, the system named is wheat (Wh). Put plainly: Test Example 3: phytotoxicity to upland crop plants, treatment before emergence. The conditions noted are these: dosage 5 kg/ha. In outline: (§1)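 Pre-emergence treatment: a liquid preparation containing a prescribed concentration of test compound was sprayed, and injury to soybean and wheat was assessed 14 days later. Phytotoxicity was judged against a scoring criterion, alongside weed-killing rate.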

Another series concerns soybean plant (So). Described as above. As to conditions: dosage 5 kg/ha. The procedure, abridged:
as §1

For series [1], the system named is barnyard grass (Echinochloa crus-galli Beauv.). Put plainly: Test Example 1: herbicidal effect on paddy field weeds before emergence. The conditions noted are these: Dosage 5 kg/ha. The procedure, abridged: (§2)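 Grading reflects percent control relative to untreated plots, evaluated three weeks post-application. Treatment was a soil application of compound solution, predetermined dose, made to paddy-state pots before weed seeds germinated.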

Series [2] relates to bulrush (Scirpus juncoides Roxb.). Described as above. As to conditions: Dosage 5 kg/ha. In outline:
as §2

In series [3] the test system is bird's eye speedwell (Veronica persica Poir.), Vp. Put plainly: Test Example 4: herbicidal effect on upland weeds after emergence. The conditions noted are these: dosage 5 kg/ha; sprayed after emergence; judged 14 days after treatment. The procedure, abridged: (§3)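 Weeds, soybean and wheat were sown in soil-filled vats, covered with soil and grown to set leaf stages before a post-emergence spray of an agent containing the compound at a prescribed concentration. Weed-killing rate and crop phytotoxicity were assessed 14 days after treatment.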

For series [4], the system named is forxtail grass (Alopecurus aequalis var. amurensis Ohwi), Am. Described as above. As to conditions: dosage 5 kg/ha; sprayed after emergence; judged 14 days after treatment. The procedure, abridged:
as §3

Series [5] deals with velvetleaf (Abutilon theophtasti L.), At. The description is as above. As to conditions: dosage 5 kg/ha; sprayed after emergence; judged 14 days after treatment. In outline: as §3
Series [6] concerns cocklebur (Xanthium strumarium L.), Xs. The description is as above. The conditions noted are these: dosage 5 kg/ha; sprayed after emergence; judged 14 days after treatment. The procedure, abridged:
as §3

Series [7] concerns cleavers (Galium aparine L.), Ga. Described as above. As to conditions: dosage 5 kg/ha; sprayed after emergence; judged 14 days after treatment. The procedure, abridged: as §3
The test system of series [8] is barnyard grass (Echinochloa crus-galli Beauv.), Ec. The description is as above. The conditions noted are these: dosage 5 kg/ha; sprayed after emergence; judged 14 days after treatment. The procedure, abridged:
as §3

A further series concerns soybean plant. Put plainly: Test Example 4: phytotoxicity to upland crop plants, treatment after emergence. The conditions noted are these: dosage 5 kg/ha, sprayed after emergence, judged 14 days after treatment. In outline: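 Scores of weed-killing rate, with crop phytotoxicity, come from inspection 14 days after plants in soil vats, grown to specified leaf stages, are sprayed with a formulation holding the compound at a prescribed concentration.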

Another series relates to wheat. Described as above. As to conditions: dosage 5 kg/ha, sprayed after emergence, judged 14 days after treatment. The procedure, abridged: as §3
In series [9] the test system is monochoria (Monochoria vaginalis Presl). Put plainly: Test Example 2: herbicidal effect on paddy field weeds after emergence. As to conditions: Dosage 5 kg/ha; one-leaved stage; 21 days after treatment. In outline: (§4)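 Weeds in flooded paddy-soil pots were grown to the one-leaved stage, then the soil was treated with the compound solution at a set dosage.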
Series [10] concerns barnyard grass (Echinochloa crus-galli Beauv.). Described as above. The conditions noted are these: Dosage 5 kg/ha; one-leaved stage; 21 days after treatment. In outline:
as §4

The test system of series [11] is bulrush (Scirpus juncoides Roxb.). The series is described as above. As to conditions: Dosage 5 kg/ha; one-leaved stage; 21 days after treatment. The procedure, abridged:
as §4

In series [12] the test system is bird's eye speedwell (Veronica persica Poir.), Vp. Put plainly: Test Example 3: herbicidal effect on upland weeds before emergence. As to conditions: dosage 5 kg/ha. The procedure, abridged: (§5)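 Pre-emergence spray of liquid prep, compound at set concentration; read at 14 d post-treatment; weed-kill rate calculated, effect graded.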
Series [13] deals with forxtail grass (Alopecurus aequalis var. amurensis Ohwi), Am. Described as above. As to conditions: foxtail grass, dosage 5 kg/ha. In outline:
as §5

The test system of series [14] is velvetleaf (Abutilon theophtasti L.), At. The description is as above. The conditions noted are these: dosage 5 kg/ha. The procedure, abridged:
as §5

In series [15] the test system is cocklebur (Xanthium strumarium L.), Xs. Described as above. The conditions noted are these: dosage 5 kg/ha. The procedure, abridged: as §5
Series [16] deals with cleavers (Galium aparine L.), Ga. Described as above. The conditions noted are these: dosage 5 kg/ha. In outline: as §5
Series [17] concerns barnyard grass (Echinochloa crus-galli Beauv.), Ec. The series is described as above. As to conditions: dosage 5 kg/ha. In outline: as §5

For the compound `CCCNC(=O)c1nc2occc2cc1C(=O)Nc1c(CC)ccc(Cl)c1CC` [compound 775], the “Phytotoxicity Wh” value in the series on wheat (Wh) and in the series with wheat was 5 (Crop-killing rate is 100%.) each time. In addition, the “Phytotoxicity So” value with soybean plant (So) and in the series with soybean plant was 5 (Crop-killing rate is 100%.) each time. Moreover, in series [1], the “Pre-emergence treatment Barnyard grass (herbicidal effect)” value (“Pre-emergence treatment Barnyard grass” for short) is 5 (Weed-killing rate is 100%.). Besides, the “Pre-emergence treatment Bulrush (herbicidal effect)” value (from here on “Pre-emergence treatment Bulrush”) in [2] is recorded as 5 (Weed-killing rate is 100%.). In addition, the “Herbicidal effect Vp” value in series [3] and in series [12] was 5 (Weed-killing rate is 100%.) each time. Further, the “Herbicidal effect Am” value in series [4] and in series [13] was 5 (Weed-killing rate is 100%.) each time. Further, the “Herbicidal effect At” value in series [5] and in series [14] was 5 (Weed-killing rate is 100%.) throughout. Further, the “Herbicidal effect Xs” value in [6] and in series [15] was 5 (Weed-killing rate is 100%.) throughout. In addition, the “Herbicidal effect Ga” value in series [7] and in [16] was 5 (Weed-killing rate is 100%.) throughout. The “Herbicidal effect Ec” value in series [8] and in [17] was 5 (Weed-killing rate is 100%.) throughout. In addition, in [9], the “Post-emergence treatment Monochoria (herbicidal effect)” value (shortened to “Post-emergence treatment Monochoria”) is 5 (Weed-killing rate is 100%.). Also, the “Post-emergence treatment Barnyard grass (herbicidal effect)” value (“Post-emergence treatment Barnyard grass” below) in [10] was 5 (Weed-killing rate is 100%.). Also, in series [11], the “Post-emergence treatment Bulrush (herbicidal effect)” value (from here on “Post-emergence treatment Bulrush”) is on record as 5 (Weed-killing rate is 100%.).

As for `Cc1c(Cl)cccc1NC(=O)c1cc2ccoc2nc1C(=O)NC1CCCC1` [compound 796], the “Phytotoxicity Wh” value in the series with wheat (Wh) is 5 (Crop-killing rate is 100%.); in the series on wheat, 4 (Crop-killing rate is 90-99%.). In addition, the “Phytotoxicity So” value in the series with soybean plant (So) and in the series on soybean plant was 4 (Crop-killing rate is 90-99%.) in each case. The “Pre-emergence treatment Barnyard grass” value in series [1] is recorded as 5 (Weed-killing rate is 100%.). Also, the “Pre-emergence treatment Bulrush” value in series [2] is on record as 5 (Weed-killing rate is 100%.). Besides, the “Herbicidal effect Vp” value in [3] and in series [12] was 5 (Weed-killing rate is 100%.) each time. The “Herbicidal effect Am” value in [4] and in series [13] was 5 (Weed-killing rate is 100%.) throughout. Further, the “Herbicidal effect At” value in [5] and in [14] was 5 (Weed-killing rate is 100%.) each time. Further, the “Herbicidal effect Xs” value in series [6] and in series [15] was 4 (Weed-killing rate is 90-99%.) throughout. Further, the “Herbicidal effect Ga” value was 4 (Weed-killing rate is 90-99%.) in series [7] and 5 (Weed-killing rate is 100%.) in series [16]. Moreover, the “Herbicidal effect Ec” value in series [8] and in series [17] was 5 (Weed-killing rate is 100%.) each time. Moreover, the “Post-emergence treatment Monochoria” value in series [9] is 5 (Weed-killing rate is 100%.). Also, the “Post-emergence treatment Barnyard grass” value in [10] is reported as 5 (Weed-killing rate is 100%.). For the same compound, the “Post-emergence treatment Bulrush” value in [11] was 5 (Weed-killing rate is 100%.).

Consider `CCNC(=O)c1nc2sccc2cc1C(=O)Nc1c(CC)ccc(Cl)c1CC` [compound 798], for which the “Phytotoxicity Wh” value in the series on wheat (Wh) and in the series on wheat was 5 (Crop-killing rate is 100%.) throughout. The “Phytotoxicity So” value in the series on soybean plant (So) and in the series with soybean plant was 4 (Crop-killing rate is 90-99%.) throughout. The “Pre-emergence treatment Barnyard grass” value in series [1] is 5 (Weed-killing rate is 100%.). The “Pre-emergence treatment Bulrush” value in [2] is 5 (Weed-killing rate is 100%.). Besides, the “Herbicidal effect Vp” value in series [3] and in series [12] was 5 (Weed-killing rate is 100%.) in each case. Besides, the “Herbicidal effect Am” value in series [4] and in series [13] was 5 (Weed-killing rate is 100%.) in each case. The “Herbicidal effect At” value in series [5] and in [14] was 5 (Weed-killing rate is 100%.) each time. For the same compound, the “Herbicidal effect Xs” value in [6] and in series [15] was 5 (Weed-killing rate is 100%.) each time. The “Herbicidal effect Ga” value in series [7] and in series [16] was 5 (Weed-killing rate is 100%.) in each case. Moreover, the “Herbicidal effect Ec” value in series [8] and in [17] was 5 (Weed-killing rate is 100%.) each time. Further, the “Post-emergence treatment Monochoria” value in series [9] is 5 (Weed-killing rate is 100%.). Further, the “Post-emergence treatment Barnyard grass” value in series [10] is given as 5 (Weed-killing rate is 100%.). In addition, in [11], the “Post-emergence treatment Bulrush” value is recorded as 5 (Weed-killing rate is 100%.).

Consider `CCCNC(=O)c1nc2sccc2cc1C(=O)Nc1c(CC)ccc(Cl)c1CC` [compound 799], for which the “Phytotoxicity Wh” value with wheat (Wh) and with wheat was 5 (Crop-killing rate is 100%.) throughout. In addition, the “Phytotoxicity So” value with soybean plant (So) and with soybean plant was 5 (Crop-killing rate is 100%.) throughout. Further, the “Pre-emergence treatment Barnyard grass” value in [1] is listed as 5 (Weed-killing rate is 100%.). For the same compound, the “Pre-emergence treatment Bulrush” value in series [2] is 5 (Weed-killing rate is 100%.). Also, the “Herbicidal effect Vp” value in series [3] and in series [12] was 5 (Weed-killing rate is 100%.) in each case. Further, the “Herbicidal effect Am” value in [4] and in [13] was 5 (Weed-killing rate is 100%.) throughout. The “Herbicidal effect At” value in [5] and in series [14] was 5 (Weed-killing rate is 100%.) each time. The “Herbicidal effect Xs” value in series [6] and in series [15] was 5 (Weed-killing rate is 100%.) each time. The “Herbicidal effect Ga” value in series [7] and in [16] was 5 (Weed-killing rate is 100%.) throughout. The “Herbicidal effect Ec” value in [8] and in [17] was 5 (Weed-killing rate is 100%.) each time. Besides, in series [9], the “Post-emergence treatment Monochoria” value is 5 (Weed-killing rate is 100%.). Besides, in series [10], the “Post-emergence treatment Barnyard grass” value is listed as 5 (Weed-killing rate is 100%.). In addition, in series [11], the “Post-emergence treatment Bulrush” value was 5 (Weed-killing rate is 100%.).
